Measurements: patent publication US5229381A, “Substituted azetidinones as anti-inflammatory and antidegenerative agents” (Merck & Co., Inc., priority 1991, dated 1993)

The compounds below were run against T1, human polymorphonuclear leukocyte elastase (Homo sapiens, UniProt P08246) (assay: Inhibition of human polymorphonuclear leukocyte (granulocyte) elastase via hydrolysis of Boc-AAPAN or Boc-AAPVN). Settings: Table I; read-out: Ki, concentration of the inhibitor giving 50% of the control enzyme activity.
T1 construct: Crude extract of human polymorphonuclear leukocytes (PMN) containing elastase activity; endogenous in cells; host or cells: human polymorphonuclear leukocytes (crude extract)
T1 sequence (P08246 30-247 limits assumed): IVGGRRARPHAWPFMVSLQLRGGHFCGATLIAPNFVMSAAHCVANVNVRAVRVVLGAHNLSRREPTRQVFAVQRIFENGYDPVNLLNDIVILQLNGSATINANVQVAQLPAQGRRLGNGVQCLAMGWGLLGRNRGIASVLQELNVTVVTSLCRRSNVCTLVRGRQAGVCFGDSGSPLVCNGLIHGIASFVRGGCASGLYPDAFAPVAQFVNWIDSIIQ
Type: biochemical
Description: Enzyme Assays for the Inhibition of Human Polymorphonuclear Leukocyte Elastase Via Hydrolysis of N-t-Boc-alanyl-alanyl-prolylalanine-p-nitroanilide (Boc-AAPAN) or N-t-Boc-alanyl-prolylvaline-p-nitroanilide (Boc-AAPVN) Reagent:
0.05M TES (N-tris[hydroxymethyl]methyl-2-amino-ethanesulfonic acid) Buffer, pH 7.5.
0.2 mM Boc-AAPAN or Boc-AAPVN.
To prepare substrate, the solid was first dissolved in 10.0 ml DMSO. Buffer at pH 7.5 was then added to a final volume of 100 ml.
Crude extract of human polymorphonuclear leukocytes (PMN) containing elastase activity.
Inhibitors (azetidinones) to be tested dissolved in DMSO just before use.
To 1.0 ml of 0.2 mM Boc-AAPAN in a cuvette, 0.01-0.1 ml of DMSO with or without inhibitor was added. After mixing, a measurement was taken at 410 mμ to detect any spontaneous hydrolysis due to presence of test compound. 0.05 Milliliters of PMN extract was then added and the ΔOD/min at 410 mμ was measured and recorded. Beckman model 35 spectrophotometer was used.
Results were also expressed as Ki, the micromolar concentration of the inhibitor (μM) giving 50% of the control enzyme activity; or as ^k obs/I which is the second order rate constant in per mole per second for inactivation of the enzyme.
The elastase activity in the crude PMN extract may vary from one preparation to another. A control of each new batch is run, and the volume added in the assay procedure is adjusted according to activity.

Structure (SMILES) | Ki [nM]
CCC1C(=O)N(C(C)=O)C1OC(=O)CCC(=O)O (stereo not drawn) | 2000
CCC1C(=O)N(C(=O)CCC(=O)O)C1OC(C)=O (stereo not drawn) | 1430

Same assay, conditions: pH 7.5, Table II, (per mole per second); read-out: kobs/I, second order rate constant of inactivation of the enzyme

kinact/KI [M⁻¹ s⁻¹] | Structure (SMILES)
2810 | CCC1(CC)C(=O)N(C(=O)NCc2ccc(C(=O)O)cc2)C1Oc1ccc(C(C)=O)cc1 (stereo not drawn)
13200 | CCC1(CC)C(=O)N(C(=O)NCc2cc3ccccc3o2)C1Oc1ccc(C(=O)O)cc1 (stereo not drawn)
5220 | CCC1(CC)C(=O)N(C(=O)NCc2ccco2)C1Oc1ccc(C(=O)O)cc1 (stereo not drawn)
4920 | CCC1(CC)C(=O)N(C(=O)NCc2cccs2)C1Oc1ccc(C(=O)O)cc1 (stereo not drawn)
3420 | CCC1(CC)C(=O)N(C(=O)NCc2ccc(Cl)cc2)C1Oc1ccc(C(=O)O)cc1 (stereo not drawn)
9980 | CCC1(CC)C(=O)N(C(=O)NCc2ccc(N(C)C)cc2)C1Oc1ccc(C(=O)O)cc1 (stereo not drawn)
1420 | CCC1(CC)C(=O)N(C(=O)NCC2CCCCC2)C1Oc1ccc(C(=O)O)cc1 (stereo not drawn)
3960 | CCC1(CC)C(=O)N(C(=O)NCc2ccc(C)cc2)C1Oc1ccc(C(=O)O)cc1 (stereo not drawn)
2340 | CCC1(CC)C(=O)N(C(=O)NCc2ccc(F)cc2)C1Oc1ccc(C(=O)O)cc1 (stereo not drawn)
5080 | CCC1(CC)C(=O)N(C(=O)NCc2ccc([N+](=O)[O-])cc2)C1Oc1ccc(C(=O)O)cc1 (stereo not drawn)
5160 | CCC1(CC)C(=O)N(C(=O)NCc2ccc(OC)cc2)C1Oc1ccc(C(=O)O)cc1 (stereo not drawn)
14100 | CCC1(CC)C(=O)N(C(=O)NC(C)c2cccc3ccccc23)C1Oc1ccc(C(=O)O)cc1 (stereo not drawn)
20800 | CCC1(CC)C(=O)N(C(=O)NC(C)c2ccc(C3CCCCC3)c(Cl)c2)C1Oc1ccc(C(=O)O)cc1 (stereo not drawn)
4540 | CCC1(CC)C(=O)N(C(=O)NCCCc2ccccc2)C1Oc1ccc(C(=O)O)cc1 (stereo not drawn)
4200 | CCC1(CC)C(=O)N(C(=O)NCCCCC(O)c2ccccc2)C1Oc1ccc(C(=O)O)cc1 (stereo not drawn)
3450 | CCC1(CC)C(=O)N(C(=O)NCCCCOc2ccccc2)C1Oc1ccc(C(=O)O)cc1 (stereo not drawn)
10900 | CCC1(CC)C(=O)N(C(=O)NCCCCc2ccccc2)C1Oc1ccc(C(=O)O)cc1 (stereo not drawn)
1500 | CCC1(CC)C(=O)N(C(=O)NCc2ccc(C(=O)O)cc2)C1Oc1ccccc1 (stereo not drawn)

kinact/KI [M⁻¹ s⁻¹] | Structure (SMILES)
54000 | CCCC1(CC)C(=O)N(C(=O)NC(CC)c2ccccc2)C1Oc1ccc(CC(=O)O)cc1 (stereo not drawn)
51000 | CCCC1(CC)C(=O)N(C(=O)NCc2ccc3ccccc3c2)C1Oc1ccc(C(=O)O)cc1 (stereo not drawn)
55000 | CCCC1(CC)C(=O)N(C(=O)NCc2cccc(C(F)(F)F)c2)C1Oc1ccc(C(=O)O)cc1 (stereo not drawn)
87000 | CCCC1(CC)C(=O)N(C(=O)NC(CC)c2ccccc2)C1Oc1ccc(C(=O)CCC(=O)O)cc1 (stereo not drawn)
1900 | CCC1(COC)C(=O)N(C(=O)NCc2ccccc2)C1Oc1ccc(C(=O)O)cc1 (stereo not drawn)
75000 | CCCC(NC(=O)N1C(=O)C(CC)(COC)C1Oc1ccc(C(=O)O)cc1)c1ccccc1 (stereo not drawn)
12500 | CCC1(C)C(=O)N(C(=O)NCc2ccccc2)C1Oc1ccc(C(N)=O)cc1 (stereo not drawn)
30000 | CCC1(C)C(=O)N(C(=O)NCc2cc(C)c(C(=O)O)c(C)c2)C1Oc1ccc(C(N)=O)cc1 (stereo not drawn)
2550 | CCC1(C)C(=O)N(C(=O)NCC(C)c2ccccc2)C1Oc1ccc(C(=O)O)cc1 (stereo not drawn)
11300 | CCC1(C)C(=O)N(C(=O)NCc2ccc(OC)c(OC)c2)C1Oc1ccc(C(=O)O)cc1 (stereo not drawn)
5600 | CCC1(C)C(=O)N(C(=O)NCc2cc(C)c(C(=O)O)c(C)c2)C1Oc1ccc(C(=O)O)cc1 (stereo not drawn)
15000 | CCC1(C)C(=O)N(C(=O)NC(C)c2ccccc2)C1Oc1ccc(C(=O)O)cc1 (stereo not drawn)
78800 | CCC(NC(=O)N1C(=O)C(C)(CC)C1Oc1ccc(C(=O)O)cc1)c1ccsc1 (stereo not drawn)
750000 | CCC(NC(=O)N1C(=O)C(C)(CC)C1Oc1ccc(C(=O)O)cc1)c1ccc2occc2c1 (stereo not drawn)
3280 | CCCC1(CC)C(=O)N(C(=O)NCc2ccccc2)C1Oc1ccc(C(=O)O)cc1 (stereo not drawn)
2500 | CCCC1(CCC)C(=O)N(C(=O)NCc2ccccc2)C1Oc1ccc(C(=O)O)cc1 (stereo not drawn)
1970 | C=CCC1(CC)C(=O)N(C(=O)NCc2ccccc2)C1Oc1ccc(C(=O)O)cc1 (stereo not drawn)

More lines, now with the values behind:

Structure (SMILES) | kinact/KI [M⁻¹ s⁻¹]
CCC1(CC)C(=O)N(C(=O)NCc2ccccc2)C1n1ccnc1 (stereo not drawn) | 200
CCC1(CC)C(=O)N(C(=O)NCc2ccccc2)C1Oc1ccccc1CO (stereo not drawn) | 2960
CCC1(CC)C(=O)N(C(=O)NCc2ccccc2)C1Oc1ccc2cc(C(=O)O)ccc2c1 (stereo not drawn) | 5560
CCC1(CC)C(=O)N(C(=O)NCc2ccccc2)C1Oc1cccc(C(=O)NCc2ccccc2)c1 (stereo not drawn) | 3050
CCC1(CC)C(=O)N(C(=O)NCc2ccccc2)C1Oc1cccc(C(=O)O)c1 (stereo not drawn) | 1760
CCC1(CC)C(=O)N(C(=O)NCc2ccccc2)C1Oc1ccc(CC(=O)O)cc1 (stereo not drawn) | 3180
CCC1(CC)C(=O)N(C(=O)NCc2ccc(C(C)=O)cc2)C1Oc1ccc(C(C)=O)cc1 (stereo not drawn) | 5920
CCC1(CC)C(=O)N(C(=O)NCc2ccc(Oc3ccccc3)cc2)C1Oc1ccc(C(=O)O)cc1 (stereo not drawn) | 12000
CCC1(CC)C(=O)N(C(=O)NCc2ccc3cc4ccccc4cc3c2)C1Oc1ccc(C(=O)O)cc1 (stereo not drawn) | 36200
CCC1(CC)C(=O)N(C(=O)NCc2ccc(-c3ccccc3)cc2)C1Oc1ccc(C(=O)O)cc1 (stereo not drawn) | 37000
CCC1(CC)C(=O)N(C(=O)NCc2ccc(C(=O)NS(=O)(=O)c3ccc(Cl)cc3)cc2)C1Oc1ccc(C(=O)O)cc1 (stereo not drawn) | 1730
CCCCCCCCCNC(=O)N1C(=O)C(CC)(CC)C1Oc1ccc(C(=O)O)cc1 (stereo not drawn) | 8300
CCC1(CC)C(=O)N(C(=O)NCc2ccc(-c3ccccc3)cc2)C1Oc1ccc(C(=O)CCC(=O)O)cc1 (stereo not drawn) | 107000
CCC1(CC)C(=O)N(C(=O)NCc2ccccc2)C1Oc1ccc(NC(=O)CCC(=O)O)cc1 (stereo not drawn) | 2570
CCC1(CC)C(=O)N(C(=O)NCc2ccccc2)C1Oc1ccc(NC(C)=O)cc1 (stereo not drawn) | 3500
CCC1(CC)C(=O)N(C(=O)NCc2ccccc2)C1Oc1ccc([N+](=O)[O-])cc1 (stereo not drawn) | 6850
CCC1(CC)C(=O)N(C(=O)NCc2ccccc2)C1Oc1ccc([N+](C)(C)C)cc1 (stereo not drawn) | 1700
CCC1(COC)C(=O)N(C(=O)NCc2ccc3ccccc3c2)C1Oc1ccc(C(=O)O)cc1 (stereo not drawn) | 50000
CCC1(COC)C(=O)N(C(=O)NCc2ccc3c(c2)OCO3)C1Oc1ccc(C(=O)O)cc1 (stereo not drawn) | 17000
CCC1(COC)C(=O)N(C(=O)NCc2ccc(-c3ccccc3)cc2)C1Oc1ccc(C(=O)O)cc1 (stereo not drawn) | 44500
CCC1C(=O)N(C(=O)Nc2ccc(C(=O)O)cc2)C1Oc1ccc(C(=O)O)cc1 (stereo not drawn) | 13600
C=CCC1C(=O)N(C(=O)NCc2ccccc2)C1Oc1ccc(C(=O)O)cc1 (stereo not drawn) | 5400
CCC1(Cc2ccccc2)C(=O)N(C(=O)NCc2ccccc2)C1Oc1ccc(C(=O)O)cc1 (stereo not drawn) | 87
O=C(O)c1ccc(OC2N(C(=O)NCc3ccccc3)C(=O)C23CCCC3)cc1 (stereo not drawn) | 1900

Same assay, conditions: pH 7.5, Table III, (per mole per second); read-out: kobs/I, second order rate constant of inactivation of the enzyme

kinact/KI [M⁻¹ s⁻¹] | Structure (SMILES)
3350 | CCC1(CC)C(=O)N(C(=O)NCc2ccc(S(C)(=O)=O)cc2)C1Oc1ccc(C(=O)O)cc1 (stereo not drawn)
20600 | CCC1(CC)C(=O)N(C(=O)NCc2ccc(C)c(C)c2)C1Oc1ccc(C(=O)O)cc1 (stereo not drawn)
62900 | CCC1(CC)C(=O)N(C(=O)NCc2ccc3c(c2)CCCC3)C1Oc1ccc(C(=O)O)cc1 (stereo not drawn)
13100 | CCC1(CC)C(=O)N(C(=O)NCc2ccc(OC)c(C)c2)C1Oc1ccc(C(=O)O)cc1 (stereo not drawn)

More lines, now with the values behind:

Structure (SMILES) | kinact/KI [M⁻¹ s⁻¹]
CCC1(CC)C(=O)N(C(=O)NCc2ccc(C)cc2)C1Oc1ccc(C(=O)O)c(O)c1 (stereo not drawn) | 9250
CCC1(CC)C(=O)N(C(=O)NCc2ccc(-c3ccccc3)cc2)C1Oc1ccc(CC(=O)O)cc1 (stereo not drawn) | 28900
CCC1(CC)C(=O)N(C(=O)NCc2ccc(C)c(C)c2)C1Oc1ccc(C(O)C(=O)O)cc1 (stereo not drawn) | 17600
CCC1(CC)C(=O)N(C(=O)NCc2ccc(Cc3ccccc3)cc2)C1Oc1ccc(C(=O)O)cc1 (stereo not drawn) | 8030
CCC1(CC)C(=O)N(C(=O)NCc2ccc(OCc3ccccc3)cc2)C1Oc1ccc(C(=O)O)cc1 (stereo not drawn) | 12000
CCC1(CC)C(=O)N(C(=O)NCc2ccc(-c3cccc(C(=O)O)c3)cc2)C1Oc1ccc(C(=O)O)cc1 (stereo not drawn) | 14700
CCC1(CC)C(=O)N(C(=O)NCc2ccc3cc(C(=O)O)ccc3c2)C1Oc1ccc(C(N)=O)cc1 (stereo not drawn) | 40600
CCC1(CC)C(=O)N(C(=O)NCc2ccccc2)C1Sc1nc[nH]n1 (stereo not drawn) | 116
CCC1(CC)C(=O)N(C(=O)NCc2ccccc2)C1Sc1nnnn1C (stereo not drawn) | 3660

Same assay, conditions: pH 7.5, Table IV, (per mole per second); read-out: kobs/I, second order rate constant of inactivation of the enzyme

Structure (SMILES) | kinact/KI [M⁻¹ s⁻¹]
CCC1(C)C(=O)N(C(=O)N2CCc3ccccc3C2)C1Oc1ccc(C(=O)O)cc1 (stereo not drawn) | 4380
CCC1C(=O)N(C(=O)N(Cc2ccccc2)Cc2ccccc2)C1Oc1ccc(C(=O)O)cc1 (stereo not drawn) | 5980

Same assay, conditions: pH 7.5, read-out: kobs/I, second order rate constant of inactivation of the enzyme

Structure (SMILES) | kinact/KI [M⁻¹ s⁻¹]
CCC1C(=O)N(C(C)=O)C1OC(=O)CCC(=O)O (stereo not drawn) | 4510
CCC1C(=O)N(C(=O)CCC(=O)O)C1OC(C)=O (stereo not drawn) | 2250
